1 compound from patent US20160237491A1, “METHODS FOR TREATING HCV” (AbbVie Inc., priority 2013, published 2016) can be followed below.

For the assay, the system named is HCV. Briefly: Viral load in treatment-naïve patients on Compound 1 and ritonavir for 3 days, then added peginterferon and ribavirin, grouped by IL28B PM02 methylation. Type of assay: in vivo, human. The conditions noted are these: FIG. 3. As to the method:
Twenty-one (21) treatment-naïve patients were included in the study. The patients received Compound 1 and ritonavir for three days followed by the addition of peginterferon and ribavirin for a total of 12 weeks of combination treatment. DNA samples obtained prior to the initiation of treatment were analyzed for methylation in a CpG island in the IL28B promoter corresponding to SEQ ID NO:2 (PM02). Subjects were grouped based on methylation level of PM02. Eleven (11) subjects had methylation values below 45% (diamonds). Ten (10) subjects had methylation values above 45% (squares). Viral load was assessed on Day 1 (“D1”), Day 2 (“D2”), Day 3 (“D3”), Day 4 (“D4”), Day 5 (“D5”), and Day 10 (“D10”) of treatment.

In the case of `Cc1cnc(C(=O)N[C@H]2CCCCC/C=C\[C@@H]3C[C@@]3(C(=O)NS(=O)(=O)C3CC3)NC(=O)[C@@H]3C[C@@H](Oc4nc5ccccc5c5ccccc45)CN3C2=O)cn1` [Compound 1, (2R,6S,13aS,14aR,16aS,Z)—N-(cyclopropylsulfonyl)-6-(5-methylpyrazine-2-carboxamido)-5,16-dioxo-2-(phenanthridin-6-yloxy)-1,2,3,5,6,7,8,9,10,11,13a,14,14a,15,16,16a-hexadecahydrocyclopropa[e]pyrrolo[1,2-a][1,4]diazacyclopentadecine-14a-carboxamide], the “reduction in viral load” value (after 10 days of treatment, Compound 1 + ritonavir 3 days, then peginterferon and ribavirin added, both groups (PM02 methylation below 45% n=11, above 45% n=10)) is listed as “dramatic reduction in viral load”. Also, the “effect of PM02 methylation status on response” value (treatment-naïve patients, 10 days of treatment) is “does not affect response”.
